# Measured values published in EP0367040A1, “Compounds for the treatment of urinary incontinence” (Kabi Pharmacia AB, priority 1988, dated 1990).
# Like-named read-outs stand apart in the source and are kept apart here.
# Columns and labels:
# rabbit urinary bladder [1] = assay: Anticholinergic effect on carbachol-stimulated isolated urinary bladder strips; type: cell-based; conditions: Oryctolagus cuniculus, read-out: Carbachol stim.rabbit urinary bladder KD
# Method: (§1) Carbachol was used as an agonist and was added to the organ bath cumulatively.
# rabbit papillary muscles = assay: Electrically stimulated isolated papillary muscle (heart), contraction amplitude; type: cell-based; conditions: Oryctolagus cuniculus, read-out: El.stim. papillary muscle, % inhibition of 1 µM
# From the text: The effects on heart were investigated by using isolated, rabbit papillary muscles, which were electrically stimulated at a submaximum frequency. The contraction amplitude was re­corded.
# rabbit portal vein = assay: Electrically induced submaximal contractions of isolated portal vein; type: cell-based; conditions: Oryctolagus cuniculus, read-out: El.stim. portal vein % inhibition by 1 µM
# rabbit urinary bladder [2] = assay: Inhibition of electrically induced contractions of isolated urinary bladder strips; type: cell-based; conditions: Oryctolagus cuniculus; electrically stimulated isolated rabbit bladder strips; only about half of the contractile response is mediated by cholinergic nerves; read-out: El.stim. rabbit urinary bladder IC50
# Method: as §1
# albino mice = assay: Mydriatic effect, pupil diameter in unanaesthetized mice after intravenous dosing; type: in vivo
# Method: For studying the mydriatic effect of the compounds un­anaesthetized albino mice were used. The substance was given intravenously in different doses and the pupil diame­ter was measured by means of a microscope every tenth minute until the effect disappeared.
# muscarinic receptors = assay: Selectivity factor: isolated human urinary bladder versus human salivary gland (QNB radioligand); type: binding; conditions: quotient of inhibitory concentration on isolated human urinary bladder and human salivary gland; lower figure = higher selectivity for the bladder
# From the text: The human salivary glands were obtained from patients undergoing operation for treatment of cancer in these glands. As the radioligand by which the muscarinic receptors were label led, QNB was used. The method is described in detail by S. Batra et al. in Psychopharmacology, 1986, 90, 1-4.
# [3] = carbachol as agonist, added cumulatively, isolated rabbit bladder strips
# [4] = 1 µM, isolated rabbit papillary muscle, electrically stimulated
# [5] = 1 µM, isolated rabbit portal vein, electrically stimulated
IC50 (rabbit urinary bladder [2]),Selectivity factor for human urinary bladder in comparison with human salivary gland (muscarinic receptors),Compound,Kb (rabbit urinary bladder [1]),inhibition at 1 µM (rabbit papillary muscles),inhibition at 1 µM (rabbit portal vein),"Mydriatic effect, % dilatation by 1 mg/kg i.v. (albino mice)",Kb (rabbit urinary bladder [1]; [3]),inhibition at 1 µM (rabbit papillary muscles; [4]),inhibition at 1 µM (rabbit portal vein; [5])
–,–,"CN1[C@@H]2CC[C@H]1C[C@@H](OC(=O)C(CO)c1ccccc1)C2 (stereo partly shown) [Atropine, reference compound]",2 nM,5%,20%,–,–,–,–
8.5 µM,6,"CC(C)N(CCN(C)C(=O)C(c1ccccc1)c1ccccc1)C(C)C.Cl [Example No 3, N-methyl-N-(2-diisopropylaminoethyl)-2,2-diphenyl-acetamide hydrochloride]",–,–,–,2%,60 nM,8%,10%
35.2 µM,5,"CC(C)N(CCCN(C)C(=O)C(c1ccccc1)c1ccccc1)C(C)C [Example No 4, N-methyl-N-(3-diisopropylaminopropyl)-2,2 diphenylacetamide]",–,–,–,0%,550 nM,9%,4%
25.7 µM,2,"CN(CCCN(C)C(C)(C)C)C(=O)C(c1ccccc1)c1ccccc1.Cl [Example No 7, N-methyl-N-[3-(N-methyl-N-tert-butyl-amino)propyl]-2,2-diphenylacetamide hydrochloride]",–,–,–,0%,2900 nM,0%,4%
5.3 µM,6,"CC(C)N(CCNC(=O)C(c1ccccc1)c1ccccc1)C(C)C [Example No 10, N-(2-diisopropylaminoetyl)-2,2-diphenylacetamide]",–,–,–,11%,110 nM,0%,10%
–,–,"CCN(CC)CC#CCOC(=O)C(O)(c1ccccc1)C1CCCCC1 (stereo not shown) [Oxybutynin, 2-cyclohexyl-2-hydroxy-2-phenylacetic acid 4-(diethylamino)-2-butynyl ester, reference compound]",6 nM,3%,6%,95%,–,–,–
14.5 µM,93,"CC(CC(c1ccccc1)c1ccccc1)NC(C)(C)C (stereo not shown) [Terodiline, N-t-butyl-3,3-diphenyl-1-methylpropylamine, reference compound]",–,–,–,1%,220 nM,14%,4%
